pIC50: −log10 of the molar value.
Biological target: human PAD4 (Homo sapiens (Human), UniProt Q9UM07)
Assay: In Vitro PAD4 BAEE Biochemical Assay
Settings: human PAD4, BAEE substrate; 5 nM PAD4, 2 mM calcium chloride, 3 mM BAEE; geometric mean of multiple experiments
Method in brief: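 Deimination of BAEE substrate (3 mM) measured as ammonia via o-phthalaldehyde–DTT isoindole fluorescence, 405/535 nm. Tag-free bacterially expressed human PAD4 at 5 nM with 2 mM calcium chloride, pH 7.6 MOPS buffer, 30 min compound preincubation then 2 h reaction, both at 25 °C.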

human PAD4, sequence (Q9UM07 2-663): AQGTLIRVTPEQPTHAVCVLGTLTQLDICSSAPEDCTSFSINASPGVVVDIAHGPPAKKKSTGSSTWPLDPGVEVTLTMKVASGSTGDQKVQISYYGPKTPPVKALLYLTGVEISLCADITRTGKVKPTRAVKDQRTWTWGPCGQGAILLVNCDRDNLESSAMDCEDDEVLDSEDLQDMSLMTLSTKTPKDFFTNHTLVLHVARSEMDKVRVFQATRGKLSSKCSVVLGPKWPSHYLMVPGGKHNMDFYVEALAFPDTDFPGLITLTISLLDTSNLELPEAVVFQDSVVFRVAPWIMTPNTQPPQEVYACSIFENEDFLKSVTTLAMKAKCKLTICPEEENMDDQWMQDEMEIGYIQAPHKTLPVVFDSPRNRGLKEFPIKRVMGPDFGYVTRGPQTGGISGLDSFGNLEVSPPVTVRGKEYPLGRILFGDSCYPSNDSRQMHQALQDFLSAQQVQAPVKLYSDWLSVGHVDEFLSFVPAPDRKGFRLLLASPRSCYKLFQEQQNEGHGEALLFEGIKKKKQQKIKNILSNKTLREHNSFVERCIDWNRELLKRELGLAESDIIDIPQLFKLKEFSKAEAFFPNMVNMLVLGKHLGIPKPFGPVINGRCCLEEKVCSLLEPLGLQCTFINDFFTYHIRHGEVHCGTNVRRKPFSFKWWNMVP

Compound | pIC50
COc1cc(C(=O)N2CCC[C@@H](N)C2)cc2nc(-c3cc4ccc(NS(C)(=O)=O)cc4n3CC3CC3)n(C)c12 [Example 1, (R)-N-(2-(5-(3-aminopiperidine-1-carbonyl)-7-methoxy-1-methyl-1H-benzo[d]imidazol-2-yl)-1-(cyclopropylmethyl)-1H-indol-6-yl)methanesulfonamide] | 5.80
COc1cc(C(=O)N2[C@H]3CC[C@@H]2[C@H](N)C3)cc2nc(-c3cc4ccc([C@@H](C)NC(=O)c5ccccc5C(F)F)nc4n3CC3CC3)n(C)c12 [Example 203, N-((R)-1-(2-(5-((1R,2R,4S)-2-amino-7-azabicyclo[2.2.1]heptane-7-carbonyl)-7-methoxy-1-methyl-1H-benzo[d]imidazol-2-yl)-1-(cyclopropylmethyl)-1H-pyrrolo[2,3-b]pyridin-6-yl)ethyl)-2-(difluoromethyl)benzamide] | 6.81
COc1cc(C(=O)N2CCC[C@@H](N)[C@H]2C)cc2nc(-c3cc4ccc(N(C)S(C)(=O)=O)nc4n3C3CC3)n(C)c12 [Example 47, N-(2-(5-((2R,3R)-3-amino-2-methylpiperidine-1-carbonyl)-7-methoxy-1-methyl-1H-benzo[d]imidazol-2-yl)-1-cyclopropyl-1H-pyrrolo[2,3-b]pyridin-6-yl)-N-methylmethanesulfonamide] | 5.76
COc1cc(C(=O)N2[C@H]3CC[C@@H]2[C@H](N)C3)cc2nc(-c3cc4ccc([C@@H](C)NC(=O)C(C)n5cccn5)nc4n3CC3CC3)n(C)c12 (stereo partly drawn) [Example 211, N-((R)-1-(2-(5-((1R,2R,4S)-2-amino-7-azabicyclo[2.2.1]heptane-7-carbonyl)-7-methoxy-1-methyl-1H-benzo[d]imidazol-2-yl)-1-(cyclopropylmethyl)-1H-pyrrolo[2,3-b]pyridin-6-yl)ethyl)-2-(1H-pyrazol-1-yl)propanamide] | 7.04
CCN(c1ccc2cc(-c3nc4cc(C(=O)N5CCC[C@@H](N)[C@H]5C)cc(OC)c4n3C3CC3)n(CC3CC3)c2n1)S(C)(=O)=O [Example 35, N-(2-(5-((2R,3R)-3-amino-2-methylpiperidine-1-carbonyl)-1-cyclopropyl-7-methoxy-1H-benzo[d]imidazol-2-yl)-1-(cyclopropylmethyl)-1H-pyrrolo [2,3-b]pyridin-6-yl)-N-ethylmethanesulfonamide] | 6.85
COc1cc(C(=O)N2[C@H]3CC[C@@H]2[C@H](N)C3)cc2nc(-c3cc4ccc([C@@H](C)NC(=O)C5(n6cccn6)CC5)nc4n3CC3CC3)n(C)c12 [Example 173, N-((R)-1-(2-(5-((1R,2R,4S)-2-amino-7-azabicyclo[2.2.1]heptane-7-carbonyl)-7-methoxy-1-methyl-1H-benzo[d]imidazol-2-yl)-1-(cyclopropylmethyl)-1H-pyrrolo[2,3-b]pyridin-6-yl)ethyl)-1-(1H-pyrazol-1-yl)cyclopropane-1-carboxamide] | 7.01
COc1cc(C(=O)N2[C@H]3CC[C@@H]2[C@H](N)C3)cc2nc(-c3cc4ccc([C@@H](C)NC(=O)C5(OC)CC5)cc4n3CC3CC3)n(C)c12 [Example 142, N-((R)-1-(2-(5-((1R,2R,4S)-2-amino-7-azabicyclo[2.2.1]heptane-7-carbonyl)-7-methoxy-1-methyl-1H-benzo[d]imidazol-2-yl)-1-(cyclopropylmethyl)-1H-indol-6-yl)ethyl)-1-methoxycyclopropane-1-carboxamide] | 7.35
COc1cc(C(=O)N2[C@H]3CC[C@@H]2[C@H](N)C3)cc2nc(-c3cc4ccc([C@@H](C)NC(=O)C5CC(F)(F)C5)nc4n3CC3CC3)n(C)c12 [Example 204, N-((R)-1-(2-(5-((1R,2R,4S)-2-amino-7-azabicyclo[2.2.1]heptane-7-carbonyl)-7-methoxy-1-methyl-1H-benzo[d]imidazol-2-yl)-1-(cyclopropylmethyl)-1H-pyrrolo[2,3-b]pyridin-6-yl)ethyl)-3,3-difluorocyclobutane-1-carboxamide] | 7.32

More lines, now with the values ahead:

pIC50 | Compound
6.62 | C=CC(=O)N[C@@H]1CNC[C@H]1NC(=O)c1cc(OC)c2c(c1)nc(-c1cc3ccc(N(C(F)F)S(C)(=O)=O)nc3n1CC1CC1)n2C [Example 80, N-((3R,4R)-4-acrylamidopyrrolidin-3-yl)-2-(1-(cyclopropylmethyl)-6-((N-(difluoromethyl)methyl)sulfonamido)-1H-pyrrolo[2,3-b]pyridin-2-yl)-7-methoxy-1-methyl-1H-benzo[d] imidazole-5-carboxamide]
7.27 | C[C@@H](NC(=O)[C@@H]1CC1(F)F)c1ccc2cc(-c3nc4cc(C(=O)N5C[C@H](N)[C@@H]6CC[C@H]5C6)cc(F)c4n3C3CC3)n(CC3CC3)c2n1 [Example 226, (S)-N-((R)-1-(2-(5-((1S,4R,5R)-4-amino-2-azabicyclo[3.2.1]octane-2-carbonyl)-1-cyclopropyl-7-fluoro-1H-benzo[d]imidazol-2-yl)-1-(cyclopropylmethyl)-1H-pyrrolo[2,3-b]pyridin-6-yl)ethyl)-2,2-difluorocyclopropane-1-carboxamide]
7.06 | COc1cc(C(=O)N2C[C@H](N)CCN2C)cc2nc(-c3cc4ccc([C@@H](C)NC(=O)c5c(F)cc(F)cc5F)nc4n3CC3CC3)n(C)c12 [Example 157, N-((R)-1-(2-(5-((R)-5-amino-2-methylhexahydropyridazine-1-carbonyl)-7-methoxy-1-methyl-1H-benzo[d]imidazol-2-yl)-1-(cyclopropylmethyl)-1H-pyrrolo[2,3-b]pyridin-6-yl)ethyl)-2,4,6-trifluorobenzamide]
6.44 | COc1cc(C(=O)N2C[C@H](N)CC[C@@H]2C)cc2nc(-c3cc4ccc(-c5ccc(N6CCC6)nc5C)nc4n3CC3CC3)n(C)c12 [Example 260, ((2S,5R)-5-amino-2-methylpiperidin-1-yl)(2-(6-(6-(azetidin-1-yl)-2-methylpyridin-3-yl)-1-(cyclopropylmethyl)-1H-pyrrolo[2,3-b]pyridin-2-yl)-7-methoxy-1-methyl-1H-benzo[d]imidazol-5-yl)methanone]
7.11 | COc1cc(C(=O)N2C[C@H](N)CCN2C)cc2nc(-c3cc4ccc([C@@H](C)NC(=O)c5cc(C)nc(C)c5)nc4n3CC3CC3)n(C)c12 [Example 179, N-((R)-1-(2-(5-((R)-5-amino-2-methylhexahydropyridazine-1-carbonyl)-7-methoxy-1-methyl-1H-benzo[d]imidazol-2-yl)-1-(cyclopropylmethyl)-1H-pyrrolo[2,3-b]pyridin-6-yl)ethyl)-2,6-dimethylisonicotinamide]
7.74 | COc1cc(C(=O)N2[C@H]3CC[C@@H]2[C@H](N)C3)cc2nc(-c3cc4ccc([C@@H](C)NC(=O)C56CC(C#N)(C5)C6)cc4n3CC3CC3)n(C)c12 [Example 134, N-((R)-1-(2-(5-((1R,2R,4S)-2-amino-7-azabicyclo[2.2.1]heptane-7-carbonyl)-7-methoxy-1-methyl-1H-benzo[d]imidazol-2-yl)-1-(cyclopropylmethyl)-1H-indol-6-yl)ethyl)-3-cyanobicyclo[1.1.1]pentane-1-carboxamide]
7.26 | C[C@H]1CCCS(=O)(=O)N1c1ccc2cc(-c3nc4cc(C(=O)N5C[C@H]6CC[C@@H]5[C@@H]6N)ccc4n3C3CC3)n(CC3CC3)c2n1 [Example 100, ((1R,4R,7R)-7-amino-2-azabicyclo[2.2.1]heptan-2-yl) (1-cyclopropyl-2-(1-(cyclopropylmethyl)-6-((S)-3-methyl-1,1-dioxido-1,2-thiazinan-2-yl)-1H-pyrrolo[2,3-b]pyridin-2-yl)-1H-benzo[d]imidazol-5-yl)methanone]
4.95 | Cc1cc2c(cc1C(=O)N1C[C@H]3CC[C@@H]1[C@@H]3N)nc(-c1cc3ccc(N(C(F)F)S(C)(=O)=O)nc3n1CC1CC1)n2C [Example 57, N-(2-(5-((1R,4R,7R)-7-amino-2-azabicyclo[2.2.1]heptane-2-carbonyl)-1,6-dimethyl-1H-benzo[d]imidazol-2-yl)-1-(cyclopropylmethyl)-1H-pyrrolo[2,3-b]pyridin-6-yl)-N-(difluoromethyl) methanesulfonamide]
6.87 | CCc1nc(C)c(-c2ncccc2-c2ccc3cc(-c4nc5cc(C(=O)N6CCC[C@@H](N)C6)cc(OC)c5n4C)n(CC4CC4)c3n2)s1 [Example 271, (R)-(3-aminopiperidin-1-yl)(2-(1-(cyclopropylmethyl)-6-(2-(2-ethyl-4-methylthiazol-5-yl)pyridin-3-yl)-1H-pyrrolo[2,3-b]pyridin-2-yl)-7-methoxy-1-methyl-1H-benzo[d]imidazol-5-yl)methanone]
7.26 | COc1cc(C(=O)N2C[C@H](N)[C@@H]3CC[C@H]2C3)cc2nc(-c3cc4ccc([C@@H](C)NC(=O)[C@H]5CC5(F)F)nc4n3CC3CC3)n(C)c12 [Example 220, (R)-N-((R)-1-(2-(5-((1S,4R,5R)-4-amino-2-azabicyclo[3.2.1]octane-2-carbonyl)-7-methoxy-1-methyl-1H-benzo[d]imidazol-2-yl)-1-(cyclopropylmethyl)-1H-pyrrolo[2,3-b]pyridin-6-yl)ethyl)-2,2-difluorocyclopropane-1-carboxamide]
6.99 | COc1cc(C(=O)N2CCC[C@@H](N)C2)cc2nc(-c3cc4cc(F)c([C@@H](C)NC(=O)c5cnn(C(F)F)c5)cc4n3CC3CC3)n(C)c12 [Example 151, N-((R)-1-(2-(5-((R)-3-aminopiperidine-1-carbonyl)-7-methoxy-1-methyl-1H-benzo[d]imidazol-2-yl)-1-(cyclopropylmethyl)-5-fluoro-1H-indol-6-yl)ethyl)-1-(difluoromethyl)-1H-pyrazole-4-carboxamide]

Same assay, conditions: recombinant PAD4 5 nM, 2 mM calcium chloride, 3 mM BAEE substrate; geometric mean of multiple experiments

pIC50 | Compound
7.05 | C[C@@H](NS(=O)(=O)C1CC1)c1ccc2cc(-c3nc4cc(C(=O)N5C[C@H](N)[C@@H]6CC[C@H]5C6)cc(F)c4n3C3CC3)n(CC3CC3)c2n1 [Example 232, N-((R)-1-(2-(5-((1S,4R,5R)-4-amino-2-azabicyclo[3.2.1]octane-2-carbonyl)-1-cyclopropyl-7-fluoro-1H-benzo[d]imidazol-2-yl)-1-(cyclopropyImethyl)-1H-pyrrolo[2,3-b]pyridin-6-yl)ethyl)cyclopropanesulfonamide]
